Data from patent US8410161B2, “Thioxanthone ring system derivatives” (National Defense Medical Center, priority 2010, dated 2013).

Assays:
[1] = system: HCT-116; test: NCI in vitro DTP human cell line screen, HCT-116; format: cell-based; details: Colon Cancer, 1.00E−5 Molar
Method: (§1) Then, a cell toxicity assay of the cancer lines made by National Cancer Institute will be discussed as follows. The cell toxicity assay is performed by choosing ten compounds (existing certification numbers) from the 59 compounds disclosed in the present invention first.

[2] = system: SK-OV-3; test: NCI in vitro DTP human cell line screen, SK-OV-3; format: cell-based; details: Ovarian Cancer, 1.00E−5 Molar
Method: as §1

[3] = system: NCI/ADR-RES; test: NCI in vitro DTP human cell line screen, NCI/ADR-RES; format: cell-based; details: Ovarian Cancer, 1.00E−5 Molar
Method: as §1

[4] = system: OVCAR-5; test: NCI in vitro DTP human cell line screen, OVCAR-5; format: cell-based; details: Ovarian Cancer, 1.00E−5 Molar
Method: as §1

[5] = system: A3 cell lines; test: MTT assay, A3 cell lines (lung cancer stem cell); format: cell-based
Excerpt: Please to FIG. 4B, various cell viabilities of the A3 cell lines can be obtained through the MTT assay and illustrated in FIG. 4B while the compounds No. 1˜30 are used to treat A3 cell lines, wherein A3 cell lines are lung cancer stem cell.

[6] = system: UACC-257; test: NCI in vitro DTP human cell line screen, UACC-257; format: cell-based; details: Melanoma, 1.00E−5 Molar
Method: as §1

[7] = system: KM12; test: NCI in vitro DTP human cell line screen, KM12; format: cell-based; details: Colon Cancer, 1.00E−5 Molar
Method: as §1

[8] = system: 60 cancer lines; test: NCI cell toxicity assay of 60 cancer lines, whole panel summary; format: cell-based, human; details: mean over all cell lines; 1.00E−5 Molar
Method: as §1

[9] = system: OVCAR-4; test: NCI in vitro DTP human cell line screen, OVCAR-4; format: cell-based; details: Ovarian Cancer, 1.00E−5 Molar
Method: as §1

[10] = system: MDA-MB-231/ATCC; test: NCI in vitro DTP human cell line screen, MDA-MB-231/ATCC; format: cell-based; details: Breast Cancer, 1.00E−5 Molar
Method: as §1

[11] = system: NCI-H522; test: NCI in vitro DTP human cell line screen, NCI-H522; format: cell-based; details: Non-Small Cell Lung Cancer, 1.00E−5 Molar
Method: as §1

[12] = system: NCI-H23; test: NCI in vitro DTP human cell line screen, NCI-H23; format: cell-based; details: Non-Small Cell Lung Cancer, 1.00E−5 Molar
Method: as §1

[13] = system: MDA-MB-435; test: NCI in vitro DTP human cell line screen, MDA-MB-435; format: cell-based; details: Melanoma, 1.00E−5 Molar
Method: as §1

[14] = system: NCI-H460; test: NCI in vitro DTP human cell line screen, NCI-H460; format: cell-based; details: Non-Small Cell Lung Cancer, 1.00E−5 Molar
Method: as §1

[15] = system: SNB-19; test: NCI in vitro DTP human cell line screen, SNB-19; format: cell-based; details: CNS Cancer, 1.00E−5 Molar
Method: as §1

[16] = system: OVCAR-8; test: NCI in vitro DTP human cell line screen, OVCAR-8; format: cell-based; details: Ovarian Cancer, 1.00E−5 Molar
Method: as §1

[17] = system: SF-539; test: NCI in vitro DTP human cell line screen, SF-539; format: cell-based; details: CNS Cancer, 1.00E−5 Molar
Method: as §1

[18] = system: HCT-15; test: NCI in vitro DTP human cell line screen, HCT-15; format: cell-based; details: Colon Cancer, 1.00E−5 Molar
Method: as §1

[19] = system: UACC-62; test: NCI in vitro DTP human cell line screen, UACC-62; format: cell-based; details: Melanoma, 1.00E−5 Molar
Method: as §1

[20] = system: SR; test: NCI in vitro DTP human cell line screen, SR; format: cell-based; details: Leukemia, 1.00E−5 Molar
Method: as §1

[21] = system: M14; test: NCI in vitro DTP human cell line screen, M14; format: cell-based; details: Melanoma, 1.00E−5 Molar
Method: as §1

[22] = system: NCI-H226; test: NCI in vitro DTP human cell line screen, NCI-H226; format: cell-based; details: Non-Small Cell Lung Cancer, 1.00E−5 Molar
Method: as §1

[23] = system: SK-MEL-5; test: NCI in vitro DTP human cell line screen, SK-MEL-5; format: cell-based; details: Melanoma, 1.00E−5 Molar
Method: as §1

[24] = system: COLO 205; test: NCI in vitro DTP human cell line screen, COLO 205; format: cell-based; details: Colon Cancer, 1.00E−5 Molar
Method: as §1

[25] = system: SN12C; test: NCI in vitro DTP human cell line screen, SN12C; format: cell-based; details: Renal Cancer, 1.00E−5 Molar
Method: as §1

[26] = system: SK-MEL-2; test: NCI in vitro DTP human cell line screen, SK-MEL-2; format: cell-based; details: Melanoma, 1.00E−5 Molar
Method: as §1

[27] = system: HCC-2998; test: NCI in vitro DTP human cell line screen, HCC-2998; format: cell-based; details: Colon Cancer, 1.00E−5 Molar
Method: as §1

[28] = system: K562; test: NCI in vitro DTP human cell line screen, K562; format: cell-based; details: Leukemia, 1.00E−5 Molar
Method: as §1

[29] = system: MALME-3M; test: NCI in vitro DTP human cell line screen, MALME-3M; format: cell-based; details: Melanoma, 1.00E−5 Molar
Method: as §1

[30] = system: EKVX; test: NCI in vitro DTP human cell line screen, EKVX; format: cell-based; details: Non-Small Cell Lung Cancer, 1.00E−5 Molar
Method: as §1

[31] = system: LOX IMVI; test: NCI in vitro DTP human cell line screen, LOX IMVI; format: cell-based; details: Melanoma, 1.00E−5 Molar
Method: as §1

[32] = system: UO-31; test: NCI in vitro DTP human cell line screen, UO-31; format: cell-based; details: Renal Cancer, 1.00E−5 Molar
Method: as §1

[33] = system: HL-60(TB); test: NCI in vitro DTP human cell line screen, HL-60(TB); format: cell-based; details: Leukemia, 1.00E−5 Molar
Method: as §1

[34] = MTT assay, HEL299 fibroblast; format: cell-based; details: human
Excerpt: Please refer to FIG. 4C, various cell viabilities of the HEL299 cell lines can be obtained through the MTT assay while the compounds No. 1˜30 are used to treat HEL299 cell lines, wherein HEL299 cell lines are fibroblast.

[35] = system: MOLT-4; test: NCI in vitro DTP human cell line screen, MOLT-4; format: cell-based; details: Leukemia, 1.00E−5 Molar
Method: as §1

[36] = system: HT29; test: NCI in vitro DTP human cell line screen, HT29; format: cell-based; details: Colon Cancer, 1.00E−5 Molar
Method: as §1

[37] = system: NCI-H322M; test: NCI in vitro DTP human cell line screen, NCI-H322M; format: cell-based; details: Non-Small Cell Lung Cancer, 1.00E−5 Molar
Method: as §1

[38] = system: CCRF-CEM; test: NCI in vitro DTP human cell line screen, CCRF-CEM; format: cell-based; details: Leukemia, 1.00E−5 Molar
Method: as §1

[39] = system: SF-295; test: NCI in vitro DTP human cell line screen, SF-295; format: cell-based; details: CNS Cancer, 1.00E−5 Molar
Method: as §1

[40] = system: 786-0; test: NCI in vitro DTP human cell line screen, 786-0; format: cell-based; details: Renal Cancer, 1.00E−5 Molar
Method: as §1

[41] = system: DU145; test: NCI in vitro DTP human cell line screen, DU145; format: cell-based; details: Prostate Cancer, 1.00E−5 Molar
Method: as §1

[42] = system: ACHN; test: NCI in vitro DTP human cell line screen, ACHN; format: cell-based; details: Renal Cancer, 1.00E−5 Molar
Method: as §1

[43] = system: OVCAR-3; test: NCI in vitro DTP human cell line screen, OVCAR-3; format: cell-based; details: Ovarian Cancer, 1.00E−5 Molar
Method: as §1

[44] = system: MCF7; test: NCI in vitro DTP human cell line screen, MCF7; format: cell-based; details: Breast Cancer, 1.00E−5 Molar
Method: as §1

[45] = system: HOP-62; test: NCI in vitro DTP human cell line screen, HOP-62; format: cell-based; details: Non-Small Cell Lung Cancer, 1.00E−5 Molar
Method: as §1

[46] = system: SF-268; test: NCI in vitro DTP human cell line screen, SF-268; format: cell-based; details: CNS Cancer, 1.00E−5 Molar
Method: as §1

[47] = system: IGROV1; test: NCI in vitro DTP human cell line screen, IGROV1; format: cell-based; details: Ovarian Cancer, 1.00E−5 Molar
Method: as §1

[48] = system: PC-3; test: NCI in vitro DTP human cell line screen, PC-3; format: cell-based; details: Prostate Cancer, 1.00E−5 Molar
Method: as §1

[49] = system: TK-10; test: NCI in vitro DTP human cell line screen, TK-10; format: cell-based; details: Renal Cancer, 1.00E−5 Molar
Method: as §1

## COc1ccc(CSc2ccc3c(=O)c4ccccc4sc3c2Cl)cc1 [No. 27, 4-Chloro-3-(4-methoxybenzylthio)-9H-thioxanthen-9-one]
[1]
  Growth Percent: 95.54%
[2]
  Growth Percent: 107.96%
[3]
  Growth Percent: 106.73%
[4]
  Growth Percent: 103.70%
[5]
  cell viabilities of A3 cell lines (MTT assay): 101 ± 2.95%
[6]
  Growth Percent: 100.47%
[7]
  Growth Percent: 108.05%
[8]
  Growth Percent, Mean: 103.13%
[9]
  Growth Percent: 104.27%
[10]
  Growth Percent: 96.93%
[11]
  Growth Percent: 94.65%
[12]
  Growth Percent: 99.92%
[13]
  Growth Percent: 107.44%
[14]
  Growth Percent: 107.02%
[15]
  Growth Percent: 97.16%
[16]
  Growth Percent: 95.58%
[17]
  Growth Percent: 106.78%
[18]
  Growth Percent: 104.37%
[19]
  Growth Percent: 91.61%
[20]
  Growth Percent: 84.48%
[21]
  Growth Percent: 99.76%
[22]
  Growth Percent: 100.46%
[23]
  Growth Percent: 101.55%
[24]
  Growth Percent: 99.12%
[25]
  Growth Percent: 94.49%
[26]
  Growth Percent: 104.94%
[27]
  Growth Percent: 105.73%
[28]
  Growth Percent: 114.13%
[29]
  Growth Percent: 107.44%
[30]
  Growth Percent: 114.01%
[31]
  Growth Percent: 101.59%
[32]
  Growth Percent: 102.53%
[33]
  Growth Percent: 121.13%
[34]
  viability: 92.4%
[35]
  Growth Percent: 102.31%
[36]
  Growth Percent: 108.69%
[37]
  Growth Percent: 95.82%
[38]
  Growth Percent: 89.83%
[39]
  Growth Percent: 107.03%
[40]
  Growth Percent: 100.89%
[41]
  Growth Percent: 114.70%
[42]
  Growth Percent: 104.71%
[43]
  Growth Percent: 125.16%
[44]
  Growth Percent: 101.77%
[45]
  Growth Percent: 110.61%
[46]
  Growth Percent: 101.32%
[47]
  Growth Percent: 108.76%
[48]
  Growth Percent: 93.39%
[49]
  Growth Percent: 105.39%
